Measured values as given in PubChem BioAssay AID296 (DTP/NCI, 2004).
“And” between values parts separate entries of the source, which are not always exact repeats. Equal entries are not always repeated. Results filed as inconclusive are left out.

Test system: MX-1 breast xenograft, nude mice, tumor weight T/C
Assay: NCI In Vivo Anticancer Drug Screen. Data for tumor model Human Mammary Carcinoma MX-1 Xenograft (intrarenal inoculation) in NU/NU Swiss (nude) mice
Conditions: endpoint: mean tumor weight change, higher = larger tumour
Method in brief: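 Tumor-bearing mice were treated with test compound alongside a vehicle-treated control group. Survival or tumor size was measured, and activity is expressed as the treated-group value divided by the control-group value.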

[1] = dose: 100.0 mg/kg/injection, schedule: Q04DX003 (sc), vehicle: suspension in saline
[2] = dose: 200.0 mg/kg/injection, schedule: Q04DX003 (sc), vehicle: suspension in saline
[3] = dose: 300.0 mg/kg/injection, schedule: Q04DX003 (sc), vehicle: Klucel (hydroxypropylcellulose) (HPC)
[4] = dose: 600.0 mg/kg/injection, schedule: Q04DX003 (sc), vehicle: Klucel (hydroxypropylcellulose) (HPC)
[5] = dose: 300.0 mg/kg/injection, schedule: Q04DX003 (sc), vehicle: saline with Tween-80
[6] = dose: 600.0 mg/kg/injection, schedule: Q04DX003 (sc), vehicle: saline with Tween-80
[7] = dose: 1200.0 mg/kg/injection, schedule: Q04DX003 (sc), vehicle: saline with Tween-80
[8] = dose: 1200.0 mg/kg/injection, schedule: Q04DX003 (sc), vehicle: Klucel (hydroxypropylcellulose) (HPC)
[9] = dose: 2400.0 mg/kg/injection, schedule: Q04DX003 (sc), vehicle: Klucel (hydroxypropylcellulose) (HPC)
[10] = dose: 2400.0 mg/kg/injection, schedule: Q04DX003 (sc), vehicle: saline with Tween-80
[11] = dose: 150.0 mg/kg/injection, schedule: Q04DX003 (sc), vehicle: suspension in saline
[12] = dose: 300.0 mg/kg/injection, schedule: Q04DX003 (sc), vehicle: suspension in saline
[13] = dose: 600.0 mg/kg/injection, schedule: Q04DX003 (sc), vehicle: suspension in saline
[14] = dose: 50.0 mg/kg/injection, schedule: Q01DX010 (sc), vehicle: saline with Tween-80
[15] = dose: 75.0 mg/kg/injection, schedule: Q04DX003 (sc), vehicle: saline with Tween-80
[16] = dose: 75.0 mg/kg/injection, schedule: Q04DX003 (sc), vehicle: suspension in saline

For `C=C1C(=O)OCC1C(=O)O` (configuration not stated), the T/C (dose: 50.0 mg/kg/injection, schedule: Q04DX003 (sc), vehicle: suspension in saline) was 74 % of control, the T/C [1] was 94 % of control and the T/C [2] was 50 % of control.
With `Cc1ccc(S(=O)(=O)N/N=C/C(=O)O)cc1` the T/C (dose: 25.0 mg/kg/injection, schedule: Q01DX010 (sc), vehicle: Klucel (hydroxypropylcellulose) (HPC)) was 90 % of control, the T/C (dose: 50.0 mg/kg/injection, schedule: Q01DX010 (sc), vehicle: Klucel (hydroxypropylcellulose) (HPC)) was 103 % of control and the T/C (dose: 400.0 mg/kg/injection, schedule: Q01DX010 (sc), vehicle: Klucel (hydroxypropylcellulose) (HPC)) was 58 % of control. The T/C (dose: 800.0 mg/kg/injection, schedule: Q01DX010 (sc), vehicle: Klucel (hydroxypropylcellulose) (HPC)) was 71 % of control.
In the case of `C=Cc1cnc([N+](=O)[O-])n1C`, the T/C (dose: 150.0 mg/kg/injection, schedule: Q04DX003 (sc), vehicle: Klucel (hydroxypropylcellulose) (HPC)) is reported as 72 % of control, the T/C [3] is reported as 78 % of control and the T/C [4] is reported as 54 % of control.
With `CC1(c2ccc(Cl)cc2)OC(=O)C(=Cc2ccc([N+](=O)[O-])s2)C(=O)O1` (configuration not stated) the T/C [5] was 122 % of control, the T/C [6] was 44 % of control and the T/C [7] was 26 % of control.
`COc1cc2cc(c1Cl)N(C)C(=O)CC(OC(=O)CC(C)C)C1(C)OC1C(C)C1CC(O)(NC(=O)O1)C(OC)/C=C/C=C(C)C2` (configuration not stated) was tested, and the T/C (dose: 25.0 micrograms/kg/injection, schedule: Q01DX010 (sc), vehicle: saline + alcohol) was -12 % of control and the T/C (dose: 100.0 micrograms/kg/injection, schedule: Q01DX010 (sc), vehicle: saline + alcohol) was -54 % of control.
`C[n+]1c(-c2cccc3ccccc23)c2cc(N)ccc2c2ccccc21` was tested, and the T/C (dose: 12.0 mg/kg/injection, schedule: Q04DX003 (sc), vehicle: saline) was 103 % of control and the T/C (dose: 48.0 mg/kg/injection, schedule: Q04DX003 (sc), vehicle: saline) was 92 % of control.
In the case of `OCC1OC(n2cnc3c(NO)ncnc32)C(O)C1O` (configuration not stated), the T/C [3] is reported as 65 % of control, the T/C [4] is reported as 70 % of control and the T/C [8] is reported as 100 % of control. For the same compound, the T/C [9] was 82 % of control.
For `C1CC[N-]CC1.[Cl][Pt+2][Cl].[NH-]C1CC1`, the T/C (dose: 25.0 mg/kg/injection, schedule: Q04DX003 (sc), vehicle: water) was 60 % of control, the T/C (dose: 50.0 mg/kg/injection, schedule: Q04DX003 (sc), vehicle: Klucel (hydroxypropylcellulose) (HPC)) was 34 % of control and 55 % of control and the T/C (dose: 50.0 mg/kg/injection, schedule: Q04DX003 (sc), vehicle: water) was 11 % of control. For the same compound, the T/C (dose: 100.0 mg/kg/injection, schedule: Q04DX003 (sc), vehicle: water) was -83 % of control.
For `ClC(Cl)(Cl)C1=NCc2nnn(Cc3ccccc3)c2N1`, the T/C [5] was 92 % of control, the T/C [6] was 61 % of control and the T/C [7] was 66 % of control. For the same compound, the T/C [10] was 101 % of control.
With `Cn1cnc([N+](=O)[O-])c1[Se]c1nc(N)nc2nc[nH]c12` the T/C (dose: 50.0 mg/kg/injection, schedule: Q01DX010 (sc), vehicle: water) was 71 % of control.
`CC(C)=CCNc1ncnc2c1ncn2C1OC(CO)C(O)C1O` (configuration not stated) was tested, and the T/C [1] was 122 % of control.
With `COc1cc2c(c(OC)c1OC)-c1ccc(OC)c(=O)cc1[C@@H](NC(=O)CCl)CC2` the T/C (dose: 1.25 mg/kg/injection, schedule: Q04DX003 (sc), vehicle: saline with Tween-80) was 90 % of control, the T/C (dose: 2.5 mg/kg/injection, schedule: Q04DX003 (sc), vehicle: saline with Tween-80) was 64 % of control and the T/C (dose: 5.0 mg/kg/injection, schedule: Q04DX003 (sc), vehicle: saline with Tween-80) was 21 % of control. For the same compound, the T/C (dose: 10.0 mg/kg/injection, schedule: Q04DX003 (sc), vehicle: saline with Tween-80) was -92 % of control.
In the case of `Cc1cn(C2CC(F)C(CO)O2)c(=O)[nH]c1=O` (configuration not stated), the T/C [11] is reported as 56 % of control, the T/C [12] is reported as 105 % of control and the T/C [13] is reported as 111 % of control. For the same compound, the T/C (dose: 1200.0 mg/kg/injection, schedule: Q04DX003 (sc), vehicle: suspension in saline) was 93 % of control.
With `CCC1CN2C(=N1)c1ccccc1-c1cc(Cl)ccc12` (configuration not stated) the T/C (dose: 12.5 mg/kg/injection, schedule: Q01DX010 (sc), vehicle: saline with Tween-80) was 108 % of control, the T/C (dose: 25.0 mg/kg/injection, schedule: Q01DX010 (sc), vehicle: saline with Tween-80) was 118 % of control and the T/C [14] was 108 % of control.
With `CC(Cc1ccc(O)cc1)NCC(O)c1ccc(O)c(O)c1` (configuration not stated) the T/C [15] was 91 % of control, the T/C (dose: 150.0 mg/kg/injection, schedule: Q04DX003 (sc), vehicle: saline with Tween-80) was 96 % of control and the T/C [6] was 67 % of control. The T/C [7] was 82 % of control and the T/C [10] was 45 % of control.
With `Cc1ccc2nc(-c3ccc4nc(-c5ccc(N=Nc6ccc(-c7nc8ccc(-c9nc%10ccc(C)c(S(=O)(=O)O)c%10s9)cc8s7)cc6)cc5)sc4c3)sc2c1S(=O)(=O)O` the T/C [2] was 90 % of control and the T/C (dose: 400.0 mg/kg/injection, schedule: Q04DX003 (sc), vehicle: suspension in saline) was 90 % of control.
With `O=CC=O` the T/C [14] was 109 % of control, the T/C (dose: 100.0 mg/kg/injection, schedule: Q01DX010 (sc), vehicle: saline with Tween-80) was 74 % of control and the T/C (dose: 200.0 mg/kg/injection, schedule: Q01DX010 (sc), vehicle: saline with Tween-80) was 100 % of control. The T/C (dose: 400.0 mg/kg/injection, schedule: Q01DX010 (sc), vehicle: saline with Tween-80) was 60 % of control.
For `CC1(C)OC1CS(=O)c1ccccc1` (configuration not stated), the T/C [6] was 121 % of control.
With `CN(C)C(=O)SC1=C(c2c(Cl)cccc2Cl)C(=O)c2ccccc21` the T/C [3] was 76 % of control, the T/C [4] was 65 % of control and the T/C [8] was 57 % of control. For the same compound, the T/C [9] was 67 % of control.
In the case of `CSC(SC)=C1C(=O)NC(=O)NC1=O`, the T/C [16] is reported as 69 % of control, the T/C [11] is reported as 75 % of control and the T/C [12] is reported as 108 % of control. The T/C [13] was 42 % of control.
With `Cc1cc(NCCCCCCCCNc2cc(C)nc3cc(N(C)C)ccc23)c2ccc(N(C)C)cc2n1` the T/C (dose: 150.0 mg/kg/injection, schedule: Q04DX003 (sc), vehicle: distilled water + Tween-80 + alcohol) was 67 % of control, the T/C (dose: 300.0 mg/kg/injection, schedule: Q04DX003 (sc), vehicle: distilled water + Tween-80 + alcohol) was 74 % of control and the T/C (dose: 600.0 mg/kg/injection, schedule: Q04DX003 (sc), vehicle: distilled water + Tween-80 + alcohol) was 43 % of control. The T/C (dose: 1200.0 mg/kg/injection, schedule: Q04DX003 (sc), vehicle: distilled water + Tween-80 + alcohol) was 71 % of control.
`NCCCC(N)(C(=O)O)C(F)F` (configuration not stated) was tested, and the T/C (dose: 300.0 mg/kg/injection, schedule: Q04DX003 (sc), vehicle: distilled water + alcohol) was 110 % of control, the T/C (dose: 600.0 mg/kg/injection, schedule: Q04DX003 (sc), vehicle: distilled water + alcohol) was 83 % of control and the T/C (dose: 1200.0 mg/kg/injection, schedule: Q04DX003 (sc), vehicle: distilled water + alcohol) was 73 % of control. For the same compound, the T/C (dose: 2400.0 mg/kg/injection, schedule: Q04DX003 (sc), vehicle: distilled water + alcohol) was 112 % of control.
In the case of `C(=N/NC1=NCCN1)/c1c2ccccc2c(/C=N\NC2=NCCN2)c2ccccc12`, the T/C [16] is reported as 11 % of control and 25 % of control and the T/C [11] is reported as 17 % of control and 18 % of control.
With `COc1cc([C@@H]2c3cc4c(c(O)c3C[C@H]3COC(=O)[C@@H]32)OCO4)cc(OC)c1OC` the T/C (dose: 2.0 mg/kg/injection, schedule: Q01DX010 (sc), vehicle: saline) was 78 % of control and the T/C (dose: 4.0 mg/kg/injection, schedule: Q01DX010 (sc), vehicle: saline) was 56 % of control.
In the case of `Nc1nc(N)c2c(ccc3c2ccn3Cc2cccc([N+](=O)[O-])c2)n1`, the T/C (dose: 37.5 mg/kg/injection, schedule: Q04DX003 (sc), vehicle: saline with Tween-80) is reported as 98 % of control and the T/C [15] is reported as 94 % of control.
`CNc1nc2c(N)ncnc2n1C1OC(CO)C(O)C1O` (configuration not stated) was tested, and the T/C (dose: 12.5 mg/kg/injection, schedule: Q04DX003 (sc), vehicle: saline) was 111 % of control, the T/C (dose: 25.0 mg/kg/injection, schedule: Q04DX003 (sc), vehicle: saline) was 92 % of control and the T/C (dose: 50.0 mg/kg/injection, schedule: Q04DX003 (sc), vehicle: saline) was 60 % of control.
In the case of `Nc1ncnc2c1ncn2C1C=C(CO)C(O)C1O` (configuration not stated), the T/C (dose: 3.75 mg/kg/injection, schedule: Q04DX003 (sc), vehicle: saline) is reported as 88 % of control, the T/C (dose: 7.5 mg/kg/injection, schedule: Q04DX003 (sc), vehicle: saline) is reported as 75 % of control and the T/C (dose: 15.0 mg/kg/injection, schedule: Q04DX003 (sc), vehicle: saline) is reported as 64 % of control.
